According to article PMC9795544, “Identifying Novel Inhibitors for Hepatic Organic Anion Transporting Polypeptides by Machine Learning-Based Virtual Screening” (Journal of Chemical Information and Modeling, 2022):
Where two headings read alike, the source gives them in different places.

Assays:
Format in all cases: cell-based
OATP1B3 = target: T1, OATP1B3 (Homo sapiens, UniProt Q9NPD5); assay: Pyranine transport inhibition in A431 cells overexpressing OATP1B3; conditions: for IC50: read-out: IC50 (μM) OATP1B3
T1 construct: expressed in transfected cells; host or cells: A431 cells
T1 sequence (Q9NPD5 1-702): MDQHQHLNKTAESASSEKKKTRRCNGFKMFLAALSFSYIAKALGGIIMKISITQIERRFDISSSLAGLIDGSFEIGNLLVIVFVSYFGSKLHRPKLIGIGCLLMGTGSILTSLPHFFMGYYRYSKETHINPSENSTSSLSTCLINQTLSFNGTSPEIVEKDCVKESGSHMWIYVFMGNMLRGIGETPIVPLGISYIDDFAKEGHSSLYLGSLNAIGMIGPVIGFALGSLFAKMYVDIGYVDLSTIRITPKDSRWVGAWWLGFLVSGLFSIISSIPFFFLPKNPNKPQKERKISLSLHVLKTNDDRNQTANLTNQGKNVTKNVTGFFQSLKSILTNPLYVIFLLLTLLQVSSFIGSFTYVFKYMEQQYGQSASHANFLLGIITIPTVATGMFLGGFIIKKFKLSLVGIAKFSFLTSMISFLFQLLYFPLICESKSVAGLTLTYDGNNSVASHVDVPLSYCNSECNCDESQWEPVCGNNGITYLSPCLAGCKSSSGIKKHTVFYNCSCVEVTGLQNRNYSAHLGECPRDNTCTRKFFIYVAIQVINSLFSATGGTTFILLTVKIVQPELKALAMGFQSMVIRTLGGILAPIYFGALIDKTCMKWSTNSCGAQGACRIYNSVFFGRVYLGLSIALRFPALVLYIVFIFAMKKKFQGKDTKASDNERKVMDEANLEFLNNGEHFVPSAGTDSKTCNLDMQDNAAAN
Protocol: (§1) A431 cells overexpressing OATP1B1, OATP1B3, or OATP2B1 or their mock transfected controls were generated previously[30] and maintained in Dulbecco’s modified Eagle medium (DMEM, Gibco, Thermofisher Scientific, Waltham, MA, US) supplemented with 10% fetal bovine serum, 2 mM L-glutamine, 100 units/mL penicillin, and 100 μg/mL streptomycin. Expression and function of OATPs in the cell lines were checked regularly.
(§2) Interaction with OATP1B1, OATP1B3, or OATP2B1 was tested in an indirect transport assay using pyranine (8-hydroxypyrene-1,3,6-trisulfonic acid trisodium salt, H1529, Sigma, Merck, Budapest, Hungary) as the test substrate[31],[32] A431 cells overexpressing OATP1B1, OATP1B3, or OATP2B1 or their mock transfected controls were seeded on 96-well plates in a density of 8 × 10^4 cells per well in 200 μL of cell culture medium 1 day prior to the transport measurements. […] The transport reaction was started by the addition of 50 μL of uptake buffer containing pyranine in a final concentration of 10 μM (OATP1B1) or 20 μM (OATP1B3 and OATP2B1), and the cells were further incubated at 37 °C for 15 min (OATP1B1 and OATP2B1) or 30 min (OATP1B3). The reaction was stopped by removing the supernatant. After repeated washing with ice-cold PBS, fluorescence was determined in an Enspire plate reader (PerkinElmer, Waltham, MA) with excitation/emission wavelengths of 460/510 nm. OATP-dependent transport was calculated by extracting fluorescence measured in mock transfected cells and normalized to the fluorescence signal obtained in the absence of the tested compounds (100%). Experiments were repeated in at least three biological replicates.

OATP2B1 = target: T2, OATP2B1 (Homo sapiens, UniProt O94956); assay: Pyranine transport inhibition in A431 cells overexpressing OATP2B1
T2 construct: expressed in transfected cells; host or cells: A431 cells
T2 sequence (O94956 1-709): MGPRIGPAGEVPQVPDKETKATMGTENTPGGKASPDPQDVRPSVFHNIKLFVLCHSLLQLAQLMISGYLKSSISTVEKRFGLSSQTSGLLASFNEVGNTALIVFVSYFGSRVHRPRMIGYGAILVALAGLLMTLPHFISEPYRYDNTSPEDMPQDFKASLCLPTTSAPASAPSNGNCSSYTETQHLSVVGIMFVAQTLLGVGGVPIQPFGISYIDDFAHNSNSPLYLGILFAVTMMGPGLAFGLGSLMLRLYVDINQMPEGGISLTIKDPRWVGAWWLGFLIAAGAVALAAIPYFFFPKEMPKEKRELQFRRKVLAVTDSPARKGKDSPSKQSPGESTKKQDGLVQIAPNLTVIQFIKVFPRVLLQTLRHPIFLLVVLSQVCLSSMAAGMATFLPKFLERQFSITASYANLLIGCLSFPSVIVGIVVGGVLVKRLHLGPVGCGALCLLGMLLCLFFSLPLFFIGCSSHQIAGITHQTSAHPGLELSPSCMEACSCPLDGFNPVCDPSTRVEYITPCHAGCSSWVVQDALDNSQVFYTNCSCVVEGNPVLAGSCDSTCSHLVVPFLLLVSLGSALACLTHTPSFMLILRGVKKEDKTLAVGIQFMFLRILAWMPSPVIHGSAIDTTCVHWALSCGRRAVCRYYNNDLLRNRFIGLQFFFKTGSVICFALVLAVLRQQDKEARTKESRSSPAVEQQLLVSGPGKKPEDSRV
Protocol: as §1, §2

OATP1B1 = target: T3, OATP1B1 (Homo sapiens, UniProt Q9Y6L6); assay: Pyranine transport inhibition in A431 cells overexpressing OATP1B1
T3 construct: expressed in transfected cells; host or cells: A431 cells
T3 sequence (Q9Y6L6 1-691): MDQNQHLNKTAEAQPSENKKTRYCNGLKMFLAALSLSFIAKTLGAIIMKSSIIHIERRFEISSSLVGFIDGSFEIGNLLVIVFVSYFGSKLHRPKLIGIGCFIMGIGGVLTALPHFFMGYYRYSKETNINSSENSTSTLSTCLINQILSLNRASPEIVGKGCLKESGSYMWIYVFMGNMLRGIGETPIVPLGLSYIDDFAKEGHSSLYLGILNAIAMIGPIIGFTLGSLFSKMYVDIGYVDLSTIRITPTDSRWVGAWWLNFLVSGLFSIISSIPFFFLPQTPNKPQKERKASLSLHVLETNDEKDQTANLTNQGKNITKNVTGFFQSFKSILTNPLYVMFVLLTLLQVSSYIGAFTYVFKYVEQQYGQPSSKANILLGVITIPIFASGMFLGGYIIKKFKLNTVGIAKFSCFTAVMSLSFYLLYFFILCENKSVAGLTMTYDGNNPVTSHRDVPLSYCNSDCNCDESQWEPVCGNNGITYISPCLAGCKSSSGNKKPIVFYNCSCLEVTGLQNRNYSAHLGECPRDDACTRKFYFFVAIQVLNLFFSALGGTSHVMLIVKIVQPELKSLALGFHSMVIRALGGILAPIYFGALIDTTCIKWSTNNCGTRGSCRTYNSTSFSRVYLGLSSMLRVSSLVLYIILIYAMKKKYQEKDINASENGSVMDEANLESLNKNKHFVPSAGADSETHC
Protocol: as §1, §2

[1] = initial three-point screen (1, 10, 100 μM), category by concentration needed for 50% inhibition, pyranine 20 μM, 30 min, pH 5.5
[2] = initial three-point screen (1, 10, 100 μM), category by concentration needed for 50% inhibition, pyranine 20 μM, 15 min, pH 5.5, read-out: IC50 (μM) OATP2B1
[3] = initial three-point screen (1, 10, 100 μM), category by concentration needed for 50% inhibition, pyranine 10 μM, 15 min, pH 5.5, read-out: IC50 (μM) OATP1B1
[4] = IC50 (μM) OATP2B1, initial three-point screen (1, 10, 100 μM), category by concentration needed for 50% inhibition, pyranine 20 μM, 15 min, pH 5.5
[5] = full dose-response curve, eight concentrations, Hill1 fit
[6] = full dose-response curve, eight concentrations, Hill1 fit, read-out: IC50 (μM) OATP2B1
[7] = full dose-response curve, eight concentrations, Hill1 fit, read-out: IC50 (μM) OATP1B1

| Structure (SMILES) | IC50 (OATP1B3; [1]) | IC50 (OATP2B1; [2]) | IC50 (OATP1B1; [3]) | other results |
| --- | --- | --- | --- | --- |
| CSCCC(NC(=O)c1ccco1)C(=O)OCc1cc(=O)oc2cc(O)ccc12 (stereo not drawn) [B7, CSCCC(NC(=O)c1occc1)C(=O)OCC2=CC(=O)Oc3cc(O)ccc23] | > 10 µM | 1 to 10 µM | 1 to 10 µM |  |
| CCc1ccccc1NC(=O)CN1CCN(C(=O)c2cc(-c3ccncc3)nc3ccccc23)CC1 [C3, CCc1ccccc1NC(=O)CN2CCN(CC2)C(=O)c3cc(nc4ccccc34)c5ccncc5] | > 10 µM | 1 to 10 µM | 1 to 10 µM |  |
| Cc1cccn2cc(COC(=O)c3ccc4c(c3)C(=O)N(Cc3ccco3)C4=O)nc12 [C4, Cc1cccn2cc(COC(=O)c3ccc4C(=O)N(Cc5occc5)C(=O)c4c3)nc12] |  |  |  | IC50 (μM) OATP1B3 (OATP1B3; [1]): no effect; IC50 (OATP2B1; [4]): > 10 µM; IC50 (OATP1B1): > 10 µM |
| Cc1cccc2nc(CSc3nc4sc5c(c4c(=O)n3Cc3ccccc3)CCCC5)cn12 [C5, Cc1cccc2nc(CSC3=Nc4sc5CCCCc5c4C(=O)N3Cc6ccccc6)cn12] |  | > 10 µM | > 10 µM | IC50 (μM) OATP1B3 (OATP1B3; [1]): no effect |
| CC(C)c1cc(C(=O)N2CCC(n3c(=O)[nH]c4ccccc43)CC2)c2cnn(C(C)C)c2n1 [C6, CC(C)c1cc(C(=O)N2CCC(CC2)N3C(=O)Nc4ccccc34)c5cnn(C(C)C)c5n1] | 1 to 10 µM | 1 to 10 µM | 1 to 10 µM |  |
| O=C(O)c1cc(/C=C/c2c(-c3ccccc3)nc3ccccn23)nc2ccccc12 [C7, OC(=O)c1cc(\C=C\c2c(nc3ccccn23)c4ccccc4)nc5ccccc15] | 1 to 10 µM | < 1 µM |  | IC50 (OATP1B3; [5]): 5.4 µM; fold lower affinity on OATP1B3 than on OATP2B1 (OATP1B3; ratio of IC50 OATP1B3 / OATP2B1): 135 fold; IC50 (OATP2B1; [6]): 0.04 µM; IC50 (OATP1B1): > 10 µM |
| O=C1NC2(CCCc3sccc32)C(=O)N1CC(=O)N1c2ccccc2OCC1c1ccccc1 (stereo not drawn) [D2, O=C(CN1C(=O)NC2(CCCc3sccc23)C1=O)N4C(COc5ccccc45)c6ccccc6] | > 10 µM | > 10 µM | > 10 µM |  |
| O=C(CCN1C(=O)NC2(CCCC2)C1=O)Nc1nc(-c2ccc3c(c2)CCC3)cs1 [D3, O=C(CCN1C(=O)NC2(CCCC2)C1=O)Nc3nc(cs3)c4ccc5CCCc5c4] |  | > 10 µM |  | IC50 (μM) OATP1B3 (OATP1B3; [1]): no effect; IC50 (μM) OATP1B1 (OATP1B1; initial three-point screen (1, 10, 100 μM), category by concentration needed for 50% inhibition, pyranine 10 μM, 15 min, pH 5.5): no effect |
| O=C(COc1ccc([N+](=O)[O-])cc1)Nc1c(C(=O)N2CCOCC2)oc2ccccc12 [D7, [O-][N+](=O)c1ccc(OCC(=O)Nc2c(oc3ccccc23)C(=O)N4CCOCC4)cc1] |  |  |  | IC50 (μM) OATP1B3 (OATP1B3; [1]): no effect; IC50 (OATP2B1; [4]): > 10 µM; IC50 (OATP1B1): > 10 µM |
| COc1ccc(C2(c3ccc(OC)cc3)NC(=O)N(CC(=O)c3ccc4c(c3)OCO4)C2=O)cc1 [E2, COc1ccc(cc1)C2(NC(=O)N(CC(=O)c3ccc4OCOc4c3)C2=O)c5ccc(OC)cc5] | 1 to 10 µM | 1 to 10 µM | > 10 µM |  |
| Cn1c(=O)[nH]c(=O)c2c1nc(N/N=C1/C(=O)Nc3ccccc31)n2CCCc1ccccc1 [E3, CN1C(=O)NC(=O)c2c1nc(N\N=C/3\C(=O)Nc4ccccc34)n2CCCc5ccccc5] | 1 to 10 µM |  | 1 to 10 µM | IC50 (OATP1B3; [5]): 1.53 µM; IC50 (OATP2B1; [6]): 1.32 µM; IC50 (OATP1B1; [7]): 2.69 µM |
| O=C(NCc1cn(Cc2ccccc2)nc1-c1ccccc1)c1cc(F)cc(F)c1 [E5, Fc1cc(F)cc(c1)C(=O)NCc2cn(Cc3ccccc3)nc2c4ccccc4] |  |  | 1 to 10 µM | IC50 (OATP1B3; [5]): 7.5 µM; IC50 (OATP2B1; [6]): 1.48 µM; IC50 (OATP1B1; [7]): 7.61 µM |
| CCn1cnc2c1c(=O)n(CC(=O)NC1CCCC(C)C1C)c(=O)n2Cc1ccccc1 (stereo not drawn) [E6, CCn1cnc2N(Cc3ccccc3)C(=O)N(CC(=O)NC4CCCC(C)C4C)C(=O)c12] | > 10 µM | 1 to 10 µM | > 10 µM |  |
| O=C(Nc1ccccc1)N1CCCC(C(=O)N2CCN(Cc3nc4ccccc4s3)CC2)C1 (stereo not drawn) [F3, O=C(Nc1ccccc1)N2CCCC(C2)C(=O)N3CCN(Cc4nc5ccccc5s4)CC3] | > 10 µM | > 10 µM | > 10 µM |  |
| Cc1ccc(OCc2nnc(SCC(=O)N3CCN(C(=O)Nc4ccccc4)CC3)o2)cc1 [F4, Cc1ccc(OCc2oc(SCC(=O)N3CCN(CC3)C(=O)Nc4ccccc4)nn2)cc1] |  |  |  | IC50 (μM) OATP1B3 (OATP1B3; [1]): Activated; IC50 (OATP2B1; [4]): > 10 µM; IC50 (OATP1B1): > 10 µM |
| Cc1cc(NS(=O)(=O)c2ccc(NC(=O)Cc3coc4c(C)c(C)ccc34)cc2)nc(C)n1 [F5, Cc1cc(NS(=O)(=O)c2ccc(NC(=O)Cc3coc4c(C)c(C)ccc34)cc2)nc(C)n1] | 1 to 10 µM | 1 to 10 µM | 1 to 10 µM |  |
| O=C(NCc1ccc(N2CCOCC2)nc1)c1ccccc1CSc1nc2ccccc2[nH]1 [F6, O=C(NCc1ccc(nc1)N2CCOCC2)c3ccccc3CSc4nc5ccccc5[nH]4] | > 10 µM | 1 to 10 µM | > 10 µM |  |
| O=C(Nc1ccccc1)C1CCN(C(=O)c2cc(-c3ccccc3)nc3ccccc23)CC1 [G2, O=C(Nc1ccccc1)C2CCN(CC2)C(=O)c3cc(nc4ccccc34)c5ccccc5] | 1 to 10 µM | 1 to 10 µM | 1 to 10 µM |  |
